Assays:
[1] = tested on: Wnt pathway (Sp5-Luc reporter, TCF/LEF binding sites) in SW480 colon carcinoma cells; experiment: Screening assay for Wnt activity: Sp5-Luc reporter gene assay; assay type: cell-based, human; conditions: Homo sapiens; Sp5-Luc reporter, SW480 cells, 36 to 48 hours;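 further: firefly luciferase luminescence read in stably transduced SW480 cells carrying the Sp5 promoter reporter with eight TCF/LEF sites, compounds given in 0.1% DMSO final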
Protocol: The screening assay for Wnt activity is described as follows.
Following incubation, 15 μl of BriteLite Plus luminescence reagent (Perkin Elmer) was added to each well of the 384-well assay plates. The plates were placed on an orbital shaker for 2 min and then luminescence was quantified using the Envision (Perkin Elmer) plate reader.

recombinant GSK3β kinase = recombinant GSK3β kinase (Homo sapiens (Human), UniProt P49841); experiment: GSK3β kinase assay (Ser/Thr 09 peptide Z-lyte FRET); assay type: biochemical; conditions: 46 μM ATP, 1 h room temperature;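 further: kinase activity read as coumarin to fluorescein emission ratio, 11-point threefold dilutions from 10 µM to 0.0003 µM in duplicate, unphosphorylated and phosphorylated peptide as 0% and 100% controls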
[2] = tested on: Tau phosphorylation at Ser396 (pSer396); experiment: Tau phosphorylation assay (pSer396 ELISA / western blot) in SH-SY5Y cells; assay type: cell-based, human; conditions: Homo sapiens; SH-SY5Y cells, overnight (16-18 h) exposure; read-out: pSer396 Tau EC50;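 further: EC50 for reduction of Tau pSer396 in lysed cells, measured by colorimetric ELISA or chemiluminescent western blot, both using the same pSer396 antibody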
[3] = molecular target: recombinant DYRK1A kinase (Homo sapiens (Human), UniProt Q13627); experiment: DYRK1A kinase assay (Ser/Thr 18 peptide Z-lyte FRET); assay type: biochemical; conditions: 30 μM ATP, 1 h room temperature;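 further: Read-out is the coumarin to fluorescein emission ratio, referenced to unphosphorylated (0%) and phosphorylated (100%) Ser/Thr 18 peptide controls, values from dose-response curves by non-linear regression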
[4] = tested on: α-smooth muscle actin (αSMA) positive LL29 cells; experiment: Inhibition of fibrotic process: αSMA in TGF-β1 treated primary human fibroblasts from IPF patients; assay type: cell-based; conditions: Homo sapiens, Fibroblast; for EC50: 96 h, Table 8, LL29 fibroblasts from IPF patients, TGF-β1 20 ng/mL, 4 days, dose-response 10 μM to 0.94 nM; for inhibition at 10 µM: read-out: percent value in parentheses beside EC50 >10 μM;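 on all read-outs here: controls were TGF-β1 stimulated wells with DMSO vehicle (positive) and cells given DMSO alone (negative), cultured in F12 medium with 1% fetal bovine serum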
IL-6 = IL-6 inhibition in LPS-stimulated human peripheral blood mononuclear cells (HTRF); assay type: cell-based; conditions: Homo sapiens, PBMC; for EC50: Table 9, huPBMCs, LPS 50 ng/mL, 22 hours, dose-response starting from 10 μM; for inhibition at 10 µM: read-out: percent value in parentheses beside EC50 >10 μM;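 on all read-outs here: IL-6 detected by HTRF with an XL665- and Cryptate-labelled anti-IL-6 antibody pair, samples run in duplicate, EC50 obtained from a four-parameter Levenberg-Marquardt curve fit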
Protocol: After 22 hour incubation, a mixture of anti-IL6 XL665 and anti-IL-6 Cryptate diluted in reconstitution buffer (Catalog #62IL6PEC, Cisbio Inc., Bedford, Mass.) was added to each well. […] All samples were processed in duplicate. […] EC50 was determined using software generated by Dotmatics Limited (Windhill Bishops Stortford Herts, UK) using the Levenberg-Marquardt 4 parameter fitting procedure with finite different gradients.

[5] = tested on: SW480 colon carcinoma cells; experiment: Cell viability assay (CellTiter-Glo); assay type: cell-based, human; conditions: Homo sapiens, 96 h; SW480 cells, CellTiter-Glo, four days incubation

recombinant GSK3β kinase, sequence (P49841 whole entry): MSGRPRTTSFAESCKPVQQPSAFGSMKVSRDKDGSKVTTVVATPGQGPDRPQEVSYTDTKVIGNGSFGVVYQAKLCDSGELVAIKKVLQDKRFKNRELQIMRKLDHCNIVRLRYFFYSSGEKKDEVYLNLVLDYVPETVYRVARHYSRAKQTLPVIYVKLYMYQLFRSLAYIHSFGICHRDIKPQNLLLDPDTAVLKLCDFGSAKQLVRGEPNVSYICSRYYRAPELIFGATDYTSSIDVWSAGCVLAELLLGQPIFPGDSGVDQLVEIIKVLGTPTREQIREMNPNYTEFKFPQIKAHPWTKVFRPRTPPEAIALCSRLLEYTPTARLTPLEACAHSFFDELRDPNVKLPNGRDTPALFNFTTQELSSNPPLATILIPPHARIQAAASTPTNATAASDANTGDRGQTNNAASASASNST

Structure (SMILES) | EC50 [1] | EC50 (recombinant GSK3β kinase) | EC50 [2] | EC50 [3] | EC50 [4] | inhibition at 10 µM [4] | EC50 (IL-6) | EC50 [5] | inhibition at 10 µM (IL-6)
Cn1cc(-c2ccc3cnc(NC(=O)C4CCN(C5COC5)CC4)cc3c2)cn1 [Compound 86, N-(6-(1-methyl-1H-pyrazol-4-yl)isoquinolin-3-yl)-1-(oxetan-3-yl)piperidine-4-carboxamide] | 4000 nM | 48 nM | 682 nM | 2.5 nM | > 10000 nM | 14.6% | 1770 nM | > 10000 nM | 
Cn1cc(-c2ccc3cnc(NC(=O)C4CCN(CC5(C)COC5)CC4)cc3c2)cn1 [Compound 87, N-(6-(1-Methyl-1H-pyrazol-4-yl)isoquinolin-3-yl)-1-((3-methyloxetan-3-yl)methyl)piperidine-4-carboxamide] | 1000 nM | 32 nM | 414 nM | 3.3 nM | 81 nM |  | 2940 nM | 3160 nM | 
COCCN1CCC(C(=O)Nc2cc3cc(-c4cnn(C)c4)ccc3cn2)CC1 [Compound 89, 1-(2-Methoxyethyl)-N-(6-(1-methyl-1H-pyrazol-4-yl)isoquinolin-3-yl) piperidine-4-carboxamide] | 765 nM | 64 nM | 364 nM | 2.7 nM | 137 nM |  | 1140 nM | 738 nM | 
CC(C)OCCN1CCC(C(=O)Nc2cc3cc(-c4cnn(C)c4)ccc3cn2)CC1 [Compound 90, 1-(2-Isopropoxyethyl)-N-(6-(1-methyl-1H-pyrazol-4-yl)isoquinolin-3-yl) piperidine-4-carboxamide] | 1100 nM | 42 nM | 302 nM | 3 nM | 96 nM |  | 1080 nM | 1170 nM | 
Cn1cc(-c2ccc3cnc(NC(=O)C4(F)CCNCC4)cc3c2)cn1 [Compound 91, 4-Fluoro-N-(6-(1-methyl-1H-pyrazol-4-yl)isoquinolin-3-yl)piperidine-4-carboxamide] | > 10000 nM | 838 nM | 4700 nM | 10.5 nM | > 10000 nM | 17.3% | > 10000 nM | 9590 nM | 40%
CN1CCC(F)(C(=O)Nc2cc3cc(-c4cnn(C)c4)ccc3cn2)CC1 [Compound 92, 4-Fluoro-1-methyl-N-(6-(1-methyl-1H-pyrazol-4-yl)isoquinolin-3-yl) piperidine-4-carboxamide] | 1600 nM | 361 nM | 3900 nM | 6.5 nM | > 10000 nM | 16.7% | > 10000 nM | 983 nM | 33%
CC(C)CN1CCC(F)(C(=O)Nc2cc3cc(-c4cnn(C)c4)ccc3cn2)CC1 [Compound 96, 4-Fluoro-1-isobutyl-N-(6-(1-methyl-1H-pyrazol-4-yl)isoquinolin-3-yl) piperidine-4-carboxamide] | > 10000 nM | 350 nM | 2000 nM | 7.1 nM | 677 nM |  | > 10000 nM | > 10000 nM | 5.8%
Cn1cc(-c2ccc3cnc(NC(=O)[C@H]4CCCNC4)cc3c2)cn1 [Compound 110, (S)—N-(6-(1-Methyl-1H-pyrazol-4-yl)isoquinolin-3-yl)piperidine-3-carboxamide] | 1100 nM | 34 nM | 636 nM | 4.7 nM | 286 nM |  | 484 nM | 1050 nM | 
CC(C)CN1CCC[C@H](C(=O)Nc2cc3cc(-c4cnn(C)c4)ccc3cn2)C1 [Compound 112, (S)-1-Isobutyl-N-(6-(1-methyl-1H-pyrazol-4-yl)isoquinolin-3-yl)piperidine-3-carboxamide] | 3200 nM | 292 nM | 1750 nM | 20.6 nM | 546 nM |  | 2990 nM | 6420 nM | 
CC(C)CN1CCC[C@@H](C(=O)Nc2cc3cc(-c4cnn(C)c4)ccc3cn2)C1 [Compound 113, (R)-1-Isobutyl-N-(6-(1-methyl-1H-pyrazol-4-yl)isoquinolin-3-yl)piperidine-3-carboxamide] | > 10000 nM | 586 nM | 3800 nM | 24.1 nM | 2110 nM |  | 1920 nM | > 10000 nM | 
Cn1cc(-c2ccc3cnc(NC(=O)C4CCOCC4)cc3c2)cn1 [Compound 114, N-(6-(1-Methyl-1H-pyrazol-4-yl)isoquinolin-3-yl)tetrahydro-2H-pyran-4-carboxamide] | 835 nM | 32 nM | 286 nM | 1.9 nM | 735 nM |  | 1140 nM | 3890 nM | 
Cn1cc(-c2ccc3cnc(NC(=O)CN4CCC(F)CC4)cc3c2)cn1 [Compound 116, 2-(4-Fluoropiperidin-1-yl)-N-(6-(1-methyl-1H-pyrazol-4-yl)isoquinolin-3-yl)acetamide] | 7100 nM | 24 nM | 870 nM | 4.3 nM | 830 nM |  | 1330 nM | 6500 nM | 
CN1CCN(CC(=O)Nc2cc3cc(-c4cnn(C)c4)ccc3cn2)CC1 [Compound 118, N-(6-(1-Methyl-1H-pyrazol-4-yl)isoquinolin-3-yl)-2-(4-methylpiperazin-1-yl)acetamide] | 3600 nM | 79 nM | 1200 nM | 9.6 nM | 821 nM |  | 3610 nM | 5940 nM | 
Cc1ncc(-c2ccc3cnc(NC(=O)C4CC4)cc3c2)n1C [Compound 119, N-(6-(1,2-Dimethyl-1H-imidazol-5-yl)isoquinolin-3-yl) cyclopropanecarboxamide] | 1060 nM | 7 nM | 418 nM | 2.9 nM | 1410 nM |  | 1200 nM | 525 nM | 
Cc1ncc(-c2ccc3cnc(NC(=O)C4CCC(F)(F)CC4)cc3c2)n1C [Compound 121, N-(6-(1,2-Dimethyl-1H-imidazol-5-yl)isoquinolin-3-yl)-4,4-difluorocyclohexanecarboxamide] | 3500 nM | 53 nM | 1030 nM | 3.4 nM | 1080 nM |  | 3650 nM | 4310 nM | 
Cc1ncc(-c2ccc3cnc(NC(=O)[C@@H]4CCCO4)cc3c2)n1C [Compound 188, (S)—N-(6-(1,2-Dimethyl-1H-imidazol-5-yl)isoquinolin-3-yl)tetrahydrofuran-2-carboxamide] | > 10000 nM | 265 nM | 4220 nM | 28.6 nM | > 10000 nM | 12.4% | 9980 nM | > 10000 nM | 
CN1CCC(C(=O)Nc2cc3cc(-c4ccn(C)n4)ccc3cn2)CC1 [Compound 264, 1-Methyl-N-(6-(1-methyl-1H-pyrazol-3-yl)isoquinolin-3-yl)piperidine-4-carboxamide] | > 10000 nM | > 10000 nM | > 10000 nM | 348 nM | > 10000 nM | 11.7% | > 10000 nM | 8750 nM | 4%
O=C(Nc1cc2cc(-c3cnc4n3CCNC4)ccc2cn1)C1CC1 [Compound 265, N-(6-(5,6,7,8-Tetrahydroimidazo[1,2-a]pyrazin-3-yl)isoquinolin-3-yl) cyclopropanecarboxamide] | 1240 nM | 7 nM | 656 nM | 3.7 nM | 2560 nM |  | 3000 nM | 4350 nM | 
CN1CCn2c(-c3ccc4cnc(NC(=O)C5CC5)cc4c3)cnc2C1 [Compound 266, N-(6-(7-Methyl-5,6,7,8-tetrahydroimidazo[1,2-a]pyrazin-3-yl)isoquinolin-3-yl)cyclopropanecarboxamide] | 2440 nM | 38 nM | 1200 nM | 17.4 nM | 697 nM |  | 1930 nM | 6320 nM | 
CN1CCn2ncc(-c3ccc4cnc(NC(=O)C5CC(F)(F)C5)cc4c3)c2C1 [Compound 267, 3,3-Difluoro-N-(6-(5-methyl-4,5,6,7-tetrahydropyrazolo[1,5-a]pyrazin-3-yl)isoquinolin-3-yl)cyclobutanecarboxamide] | 1380 nM | 39 nM | 555 nM | 29.4 nM | 590 nM |  | 9410 nM | 2020 nM | 
Cc1ncc(-c2ccc3cnc(NC(=O)C4CC(F)(F)C4)cc3c2)n1C [Compound 268, N-(6-(1,2-Dimethyl-1H-imidazol-5-yl)isoquinolin-3-yl)-3,3-difluorocyclobutanecarboxamide] | 2070 nM | 17 nM | 478 nM | 5.8 nM | 73 nM |  | 8170 nM | 2770 nM | 
Cn1nccc1-c1ccc2cnc(NC(=O)C3CCN(CCC(F)(F)F)CC3)cc2c1 [Compound 270, N-(6-(1-Methyl-1H-pyrazol-5-yl)isoquinolin-3-yl)-1-(3,3,3-trifluoropropyl) piperidine-4-carboxamide] | > 10000 nM | 5310 nM | > 10000 nM | 952 nM | > 10000 nM | 11.4% | 9980 nM | > 10000 nM | 
